The text below walks through data of ChEMBL document CHEMBL4359834 (J Med Chem, 2019).

Calls of active or inactive are those of the source. The rule behind the calls is not given here.

The target in data set [1] is Phosphatidylinositol 4,5-bisphosphate 3-kinase catalytic subunit alpha isoform (Homo sapiens, UniProt P42336). The data set is described as follows: Displacement of Alexafluor labelled kinase tracer314 from recombinant N-terminal His6-tagged PI3K p110alpha (unknown origin) incubated for 1 hr by FRET-based LanthaScreen Eu kinase binding assay.
In data set [2] the target is Serine/threonine-protein kinase mTOR (Homo sapiens, UniProt P42345). In words: Displacement of Alexafluor labelled kinase tracer314 from recombinant human C-terminal GST-tagged mTOR (1360 to 2549 amino acids) expressed in insect cells incubated for 1 hr by FRET-based LanthaScreen Eu kinase binding assay.
The nature of data set [3]: Inhibition of Class 1 PI3K/mTOR in human A2058 cells assessed as reduction in Akt phosphorylation at Ser473 residue incubated for 1 hr by InCell Western assay. The following applies: A2058, 1 h. The class given is cell-based.
Data set [4] is described as follows: cells. Particulars: Homo sapiens, A2058, 1 h.
Description: Inhibition of Class 1 PI3K/mTOR in human A2058 cells assessed as reduction in S6 phosphorylation at Ser235/236 residue incubated for 1 hr by InCell Western assay
Data set [5] deals with A2058. The data set is described as follows: Antiproliferative activity against human A2058 cells at 5 to 0.02 uM after 72 hrs by […] staining based assay. The class given is functional, cell-based.
For data set [6], the system named is SK-OV-3. The data set is described as follows: Antiproliferative activity against human SKOV3 cells at 5 to 0.02 uM after 72 hrs by […] staining based assay. Type of data set: functional, cell-based.
Data set [7] can be described thus: Half-life in dog hepatocytes. Type of data set: ADME, cell-based, Canis lupus familiaris, Hepatocyte.
The nature of data set [8]: Intrinsic clearance in rat hepatocytes assessed per 10^6 cells. The class given is ADME, cell-based, Hepatocyte. The following applies: read-out: CLH.
Data set [9] in a line: Intrinsic clearance in dog hepatocytes assessed per 10^6 cells. Particulars: read-out: CLH. The class given is ADME, cell-based, Canis lupus familiaris, Hepatocyte.
The nature of data set [10]: Half-life clearance in human hepatocytes. The class given is ADME, cell-based, Hepatocyte.
Data set [11] in a line: Half-life in mouse hepatocytes. Type of data set: ADME, cell-based, Hepatocyte.
A short description of data set [12]: Half-life in rat hepatocytes. The class given is ADME, cell-based, Hepatocyte.
Data set [13] in a line: Intrinsic clearance in human hepatocytes assessed per 10^6 cells. Type of data set: ADME, cell-based, Hepatocyte. The following applies: read-out: CLH.
Data set [14] is described as follows: Intrinsic clearance in mouse hepatocytes assessed per 10^6 cells. The class given is ADME, cell-based, Hepatocyte. The following applies: read-out: CLH.

Chain of Phosphatidylinositol 4,5-bisphosphate 3-kinase catalytic subunit alpha isoform (P42336 whole entry, the tested form may be a part, canonical isoform): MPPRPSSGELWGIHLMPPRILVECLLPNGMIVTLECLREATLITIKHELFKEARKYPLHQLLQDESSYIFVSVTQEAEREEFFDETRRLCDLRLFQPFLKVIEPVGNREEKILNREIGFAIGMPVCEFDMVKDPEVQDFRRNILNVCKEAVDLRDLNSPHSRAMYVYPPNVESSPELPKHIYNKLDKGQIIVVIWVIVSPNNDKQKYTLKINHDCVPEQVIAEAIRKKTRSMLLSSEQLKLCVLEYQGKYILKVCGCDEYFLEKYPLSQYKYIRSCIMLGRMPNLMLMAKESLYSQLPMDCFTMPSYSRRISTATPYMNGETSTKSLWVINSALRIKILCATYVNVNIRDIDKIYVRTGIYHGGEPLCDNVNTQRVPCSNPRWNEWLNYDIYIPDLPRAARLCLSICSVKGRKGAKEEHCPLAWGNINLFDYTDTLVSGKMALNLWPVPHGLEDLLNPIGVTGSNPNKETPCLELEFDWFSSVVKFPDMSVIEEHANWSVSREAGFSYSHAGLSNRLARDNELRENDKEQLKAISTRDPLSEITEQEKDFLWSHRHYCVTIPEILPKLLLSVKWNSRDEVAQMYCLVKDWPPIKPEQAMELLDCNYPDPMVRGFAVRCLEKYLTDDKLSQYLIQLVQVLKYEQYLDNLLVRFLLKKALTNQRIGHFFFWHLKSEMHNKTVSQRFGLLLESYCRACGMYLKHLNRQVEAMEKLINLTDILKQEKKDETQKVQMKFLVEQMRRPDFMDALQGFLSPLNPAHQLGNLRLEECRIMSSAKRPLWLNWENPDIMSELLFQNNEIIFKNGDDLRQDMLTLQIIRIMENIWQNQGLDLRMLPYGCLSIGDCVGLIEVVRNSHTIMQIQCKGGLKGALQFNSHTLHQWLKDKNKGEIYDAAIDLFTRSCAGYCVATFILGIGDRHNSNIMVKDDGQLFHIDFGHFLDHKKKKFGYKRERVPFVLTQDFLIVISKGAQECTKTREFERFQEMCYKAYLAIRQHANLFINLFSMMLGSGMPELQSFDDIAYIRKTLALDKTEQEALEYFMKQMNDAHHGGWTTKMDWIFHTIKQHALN

Consider `C[C@H]1COCCN1c1nc(-c2cnc(N)nc2C(F)F)cc(N2CCOCC2)n1`, for which the Ki in [1] came out at 4.1 nM; in data set [2], 15.3 nM. Also, the IC50 came out at 77.3 nM in data set [3] and 146 nM in data set [4].

Regarding `C[C@@H]1COC[C@H](C)N1c1nc(-c2cnc(N)cc2C(F)(F)F)nc(N2[C@H](C)COC[C@@H]2C)n1`, the Ki in [1] was found to be 31.4 nM; in data set [2] it was 39.6 nM. In addition, the figures for the IC50 in data set [3] and in [4] were 567 nM and 437 nM, respectively.

`C[C@@H]1COC[C@@H](C)N1c1nc(-c2cnc(N)cc2C(F)(F)F)nc(N2CCOCC2)n1`: the figures for the Ki in [1] and in data set [2] were 88.9 nM and 64.5 nM, respectively. The figures for the IC50 in data set [3] and in data set [4] were 435 nM and 457 nM, respectively.

As to `C[C@H]1COCCN1c1cc(-c2cnc(N)cc2C(F)F)nc(N2CCOCC2)n1`, the figures for the Ki in data set [1] and in data set [2] were 13.7 nM and 42.3 nM, respectively. Besides, the values for the IC50 in data set [3] and in [4] were 614 nM and 766 nM, respectively.

With `Nc1cc(C(F)(F)F)c(-c2nc(N3CC4CCC(C3)O4)nc(N3CC4CCC(C3)O4)n2)cn1`, the Ki in data set [1] came out at 731 nM; in data set [2], 177 nM. In addition, the IC50 was determined as 947 nM in [3] and 691 nM in data set [4].

Regarding `C[C@H]1COCCN1c1nc(-c2cnc(N)cc2C(F)F)cc(N2CCOCC2)n1`, the Ki in data set [2] is 10 nM. Further, the IC50 in [3] came to 146 nM; in data set [4], 125 nM.

Regarding `Nc1cc(C(F)(F)F)c(-c2nc(N3CCOCC3)nc(N3CCOCC3)n2)cn1`, the outcome in data set [5] and in data set [6] was Active.

As to `CCOc1ccc2ccc(=O)oc2c1`, the half-life in data set [7] stood at 8.49 min; in data set [10], 70 min; in data set [11] it was 18.7 min; in data set [12], 46.2 min. For the same compound, the hepatocyte CLint in [8] was determined as 30 µL/min/1e6 cells; in data set [9], 163 µL/min/1e6 cells; in data set [13], 20 µL/min/1e6 cells; in data set [14], 74 µL/min/1e6 cells.

`C[C@@H]1COCCN1c1nc(-c2cnc(N)cc2C(F)(F)F)nc(N2CCOC[C@H]2C)n1`: the figures for the inhibitory constant (Ki) in data set [1] and in [2] were 684 nM and 171 nM, respectively. Moreover, the results for the IC50 in data set [3] and in data set [4] were 1700 nM and 1120 nM, respectively.

With `O=c1ccc2ccc(O)cc2o1` [UMBELLIFERONE], the half-life in data set [7] came to 10.2 min; in data set [10], 21.1 min; in [11], 11.9 min; in data set [12] it was 11.1 min. In addition, the hepatocyte CLint in data set [8] is 124 µL/min/1e6 cells; in [9], 138 µL/min/1e6 cells; in data set [13], 65.5 µL/min/1e6 cells; in [14], 116 µL/min/1e6 cells.

For the compound `C[C@H]1COC[C@H](C)N1c1nc(-c2cnc(N)cc2C(F)(F)F)nc(N2[C@@H](C)COC[C@@H]2C)n1`, the figures for the Ki in data set [1] and in [2] were 37 nM and 265 nM, respectively. For the same compound, the IC50 in data set [3] is 610 nM; in data set [4] it was 531 nM.

In the case of `C[C@H]1COCCN1c1nc(-c2cnc(N)cc2C(F)(F)F)nc(N2CCOCC2)n1`, the values for the Ki in data set [1] and in data set [2] were 8.3 nM and 25.5 nM, respectively. Also, the IC50 in [3] was found to be 196 nM; in data set [4] it was 89.8 nM.

With `C[C@H]1COCCN1c1cc(-c2cnc(N)nc2C(F)F)nc(N2CCOCC2)n1`, the Ki is 2 nM in data set [1] and 192 nM in data set [2]. Further, the results for the IC50 in data set [3] and in data set [4] were 99.6 nM and 387 nM, respectively.

Consider `Nc1cc(C(F)(F)F)c(-c2nc(N3CCOCC3)nc(N3CC4CCC(C3)O4)n2)cn1`, for which the Ki in [1] worked out at 31 nM; in data set [2], 47.8 nM. Besides, the IC50 in data set [3] was 274 nM; in data set [4], 212 nM.

Consider `Nc1cc(C(F)(F)F)c(-c2nc(N3CCOCC3)nc(N3C4CCC3COC4)n2)cn1`, for which the Ki in [1] was 19.9 nM; in data set [2], 43.1 nM. In addition, the figures for the IC50 in [3] and in [4] were 420 nM and 156 nM, respectively.

Consider `C[C@H]1COCCN1c1nc(-c2cnc(N)cc2C(F)(F)F)nc(N2CCOC[C@@H]2C)n1`, for which the Ki in data set [1] came out at 6.8 nM; in data set [2], 137 nM. Also, the IC50 turned out to be 248 nM in [3] and 283 nM in data set [4].

`C[C@@H]1COC[C@H](C)N1c1nc(-c2cnc(N)cc2C(F)(F)F)nc(N2CCOCC2)n1`: the Ki in data set [1] turned out to be 27.4 nM; in data set [2] it was 19.3 nM. The IC50 stood at 122 nM in data set [3] and 135 nM in data set [4].

Consider `C[C@H]1COC[C@H](C)N1c1nc(-c2cnc(N)cc2C(F)(F)F)nc(N2CCOCC2)n1`, for which the Ki in data set [1] came out at 15.2 nM; in data set [2] it was 59.2 nM. The IC50 in [3] came out at 100 nM; in data set [4] it was 126 nM.

With `Nc1cc(C(F)(F)F)c(-c2nc(N3C4CCC3COC4)nc(N3C4CCC3COC4)n2)cn1`, the Ki in [1] worked out at 4640 nM; in data set [2], 76.8 nM. Moreover, the IC50 in [3] was found to be 755 nM; in [4] it was 299 nM.

`C[C@@H]1COCCN1c1nc(-c2cnc(N)cc2C(F)(F)F)nc(N2CCOCC2)n1`: the Ki in data set [1] came out at 53.7 nM; in data set [2], 109 nM. For the same compound, the IC50 was 373 nM in [3] and 410 nM in data set [4].

On to `C[C@H]1COCCN1c1nc(-c2cnc(N)nc2C(F)(F)F)nc(N2CCOCC2)n1`, for which the inhibition constant (Ki) in data set [1] was 4 nM; in data set [2], 37.9 nM. For the same compound, the IC50 in data set [3] turned out to be 91 nM; in data set [4], 164 nM.

Take `C[C@@H]1COC[C@@H](C)N1c1nc(-c2cnc(N)cc2C(F)(F)F)nc(N2[C@H](C)COC[C@H]2C)n1`: the Ki in data set [1] is over 20000 nM; in data set [2] it was 1890 nM. For the same compound, the results for the half-maximal inhibitory concentration (IC50) in data set [3] and in data set [4] were over 20000 nM and 14500 nM, respectively.

Turning to `C[C@H]1COCCN1c1nc(-c2cnc(N)nc2C(F)F)nc(N2CCOCC2)n1`, the Ki in data set [2] came to 10.6 nM. The IC50 came out at 32.4 nM in [3] and 63.9 nM in [4].
